Results reported in US6949542B2, “Dihydro-benzo[b][1,4]diazepin-2-one derivatives” (Hoffman-La Roche Inc., priority 2002, dated 2005).

SMILES	melting point [°C]
Cc1cc(-c2cccc(C3=Nc4cc(C(F)(F)F)c(C(F)(F)F)cc4NC(=O)C3)c2)ccn1 [Example 414, 4-[3-(2-Methyl-pyridin-4-yl)-phenyl]-7,8-bis-trifluoromethyl-1,3-dihydro-benzo[b][1,4]diazepin-2-one]	209
Cc1cc(-c2cccc(C3=Nc4cc(NCC(C)C)c(Cl)cc4NC(=O)C3)c2)ccn1 [Example 79, 8-Chloro-7-isobutylamino-4-[3-(2-methyl-pyridin-4-yl)-phenyl]-1,3-dihydro-benzo[b][1,4]diazepin-2-one]	220
O=C1CC(c2cccc(-c3cccnc3)c2)=Nc2ccc(C#Cc3ccc(F)cc3)cc2N1 [Example 174, 8-(4-Fluoro-phenylethynyl)-4-(3-pyridin-3-yl-phenyl)-1,3-dihydro-benzo[b][1,4]diazepin-2-one]	228 to 230
CC(C)Cc1cc(-c2cccc(C3=Nc4cc(Cl)c(C(F)(F)F)cc4NC(=O)C3)c2)ccn1 [Example 278, 7-Chloro-4-[3-(2-isobutyl-pyridin-4-yl)-phenyl]-8-trifluoromethyl-1,3-dihydro benzo[b][1,4]diazepin-2-one]	213
CNc1cc(-c2cccc(C3=Nc4cc(C)c(C(F)(F)F)cc4NC(=O)C3)c2)ncn1 [Example 330, 7-Methyl-4-[3-(6-methylamino-pyrimidin-4-yl)-phenyl]-8-trifluoromethyl-1,3-dihydro-benzo[b][1,4]diazepin-2-one]	232 to 233
Cc1cc(-c2cccc(C3=Nc4cc(N5CCOCC5)c(C(F)(F)F)cc4NC(=O)C3)c2)cc(C)n1 [Example 384, 4-[3-(2,6-Dimethyl-pyridin-4-yl)-phenyl]-7-morpholin-4-yl-8-trifluoromethyl-1,3-dihydro-benzo[b][1,4]diazepin-2-one]	251 to 252
CCOc1cc2c(cc1C(F)(F)F)NC(=O)CC(c1cccc(-c3cccnc3CC)c1)=N2 [Example 235, 7-Ethoxy-4-[3-(2-ethyl-pyridin-3-yl)-phenyl]-8-trifluoromethyl-1,3-dihydro-benzo[b][1,4]diazepin-2-one]	214
Cc1cc2c(cc1C(F)(F)F)NC(=O)CC(c1cccc(-c3ccnc(C4CC4)c3)c1)=N2 [Example 347, 4-[3-(2-Cyclopropyl-pyridin-4-yl)-phenyl]-7-methyl-8-trifluoromethyl-1,3-dihydro-benzo[b][1,4]diazepin-2-one]	232
Cc1cc(C2CC2)ncc1-c1cccc(C2=Nc3cc(OCC(F)(F)F)c(C(F)(F)F)cc3NC(=O)C2)c1 [Example 248, 4-[3-(6-Cyclopropyl-4-methyl-pyridin-3-yl)-phenyl]-7-(2,2,2-trifluoro-ethoxy)-8-trifluoromethyl-1,3-dihydro-benzo[b][1,4]diazepin-2-one]	206
Cc1cc(-c2cccc(C3=Nc4cc(N(C)C)c(C(F)(F)F)cc4NC(=O)C3)c2)cc(C)n1 [Example 409, 7-Dimethylamino-4-[3-(2,6-dimethyl-pyridin-4-yl)-phenyl]-8-trifluoromethyl-1,3-dihydro-benzo[b][1,4]diazepin-2-one]	256
Cc1cc(-c2cccc(C3=Nc4cc(C)c(C(F)(F)F)cc4NC(=O)C3)c2)nc(N(C)C)n1 [Example 320, 4-[3-(2-Dimethylamino-6-methyl-pyrimidin-4-yl)-phenyl]-7-methyl-8-trifluoromethyl-1,3-dihydro-benzo[b][1,4]diazepin-2-one]	248 to 252
CCOc1cc2c(cc1C(F)(F)F)NC(=O)CC(c1cccc(-c3cnc(C)cc3C)c1)=N2 [Example 252, 4-[3-(4,6-Dimethyl-pyridin-3-yl)-phenyl]-7-ethoxy-8-trifluoromethyl-1,3-dihydro-benzo[b][1,4]diazepin-2-one]	226 to 228
Cc1cc2c(cc1C(F)(F)F)NC(=O)CC(c1cccc(-c3ccnc(C(C)C)c3)c1)=N2 [Example 271, 4-[3-(2-Isopropyl-pyridin-4-yl)-phenyl]-7-methyl-8-trifluoromethyl-1,3-dihydro benzo[b][1,4]diazepin-2-one]	205

Results, then the compound that gave them:

melting point [°C]	SMILES
224 to 226	Cc1cc2c(cc1C(F)(F)F)NC(=O)CC(c1ccnc(-c3ccncc3)c1)=N2 [Example 292, 4-[2,4′]Bipyridinyl-4-yl-7-methyl-8-trifluoromethyl-1,3-dihydro-benzo[b][1,4]diazepin-2-one]
249	O=C1CC(c2cccc(-c3ccccn3)c2)=Nc2ccc(C#Cc3ccc(F)cc3)cc2N1 [Example 165, 8-(4-Fluoro-phenylethynyl)-4-(3-pyridin-2-yl-phenyl)-1,3-dihydro-benzo[b][1,4]diazepin-2-one]
182	CCc1cnc(C)cc1-c1cccc(C2=Nc3cc(C)c(C(F)(F)F)cc3NC(=O)C2)c1 [Example 148, 4-[3-(5-Ethyl-2-methyl-pyridin-4-yl)-phenyl]-7-methyl-8-trifluoromethyl-1,3-dihydro benzo[b][1,4]diazepin-2-one]
242	O=C1CC(c2cccc(-c3ccccn3)c2)=Nc2ccc(C#Cc3ccccc3)cc2N1 [Example 164, 8-Phenylethynyl-4-(3-pyridin-2-yl-phenyl)-1,3-dihydro-benzo[b][1,4]diazepin-2-one]
221	Cc1cc(-c2cccc(C3=Nc4cc(Cl)c(C(F)(F)F)cc4NC(=O)C3)c2)ccn1 [Example 82, 7-Chloro-4-[3-(2-methyl-pyridin-4-yl)-phenyl]-8-trifluoromethyl-1,3-dihydro benzo[b][1,4]diazepin-2-one]
208 to 209	C=Cc1cc2c(cc1C(F)(F)F)NC(=O)CC(c1cccc(-c3cccnc3)c1)=N2 [Example 214, 4-(3-Pyridin-3-yl-phenyl)-8-trifluoromethyl-7-vinyl-1,3-dihydro-benzo[b][1,4]diazepin-2-one]
227 to 230	Cc1cc(-c2cccc(C3=Nc4cc(C)c(C(F)(F)F)cc4NC(=O)C3)c2)ncn1 [Example 308, 7-Methyl-4-[3-(6-methyl-pyrimidin-4-yl)-phenyl]-8-trifluoromethyl-1,3-dihydro-benzo[b][1,4]diazepin-2-one]
211	Cc1cncc(-c2cccc(C3=Nc4cc(C(F)(F)F)c(C)cc4NC(=O)C3)c2)n1 [Example 130, 8-Methyl-4-[3-(6-methyl-pyrazin-2-yl)-phenyl]-7-trifluoromethyl-1,3-dihydro-benzo[b][1,4]diazepin-2-one]
218 to 219	Cc1cc(C)c(-c2cccc(C3=Nc4cc(C)c(C(F)(F)F)cc4NC(=O)C3)c2)cn1 [Example 245, 4-[3-(4,6-Dimethyl-pyridin-3-yl)-phenyl]-7-methyl-8-trifluoromethyl-1,3-dihydro-benzo[b][1,4]diazepin-2-one]
224 to 225	N#Cc1cc(-c2cccc(C3=Nc4cc(OCC(F)(F)F)c(Cl)cc4NC(=O)C3)c2)ccn1 [Example 203, 4-{3-[7-Chloro-4-oxo-8-(2,2,2-trifluoro-ethoxy)-4,5-dihydro-3H-benzo[b][1,4]diazepin-2-yl]-phenyl}-pyridine-2-carbonitrile]
224	Cc1cc2c(cc1Cl)NC(=O)CC(c1cccc(-c3ccnc(C)c3C)c1)=N2 [Example 140, 8-Chloro-4-[3-(2,3-dimethyl-pyridin-4-yl)-phenyl]-7-methyl-1,3-dihydro-benzo[b][1,4]diazepin-2-one]
